In ChEMBL document CHEMBL1201862, “PubChem BioAssay data set” (2004):
Active and inactive are the calls of the source.

Columns and labels:
Cytochrome P450 3A4 = Cytochrome P450 3A4 (Homo sapiens, UniProt P08684);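 note: CYP3A4 tested as one member of a cytochrome P450 panel screen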
fMet-Leu-Phe receptor = target: T1, fMet-Leu-Phe receptor (Homo sapiens, UniProt P21462); assay: formyl peptide receptor binders – dose response (AID 519); format: functional
T1 sequence (P21462 whole entry): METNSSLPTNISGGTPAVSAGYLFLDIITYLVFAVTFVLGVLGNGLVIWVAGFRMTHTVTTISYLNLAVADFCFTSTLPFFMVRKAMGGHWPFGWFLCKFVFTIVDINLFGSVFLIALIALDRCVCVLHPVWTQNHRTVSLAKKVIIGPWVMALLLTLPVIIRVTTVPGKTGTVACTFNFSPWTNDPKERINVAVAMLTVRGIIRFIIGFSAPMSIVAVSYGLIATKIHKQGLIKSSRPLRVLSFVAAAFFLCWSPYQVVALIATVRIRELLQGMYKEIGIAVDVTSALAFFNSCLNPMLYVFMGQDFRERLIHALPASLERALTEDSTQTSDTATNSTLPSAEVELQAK

Cytochrome P450 2C19 = Cytochrome P450 2C19 (Homo sapiens, UniProt P33261); assay: Cytochrome panel assay with activity outcomes. Panel member name: p450-cyp2c19 Compounds with AC50 equal or less than 10 uM are considered active; format: functional; settings: read-out: AC50
Chain of Cytochrome P450 2C19 (P33261 whole entry): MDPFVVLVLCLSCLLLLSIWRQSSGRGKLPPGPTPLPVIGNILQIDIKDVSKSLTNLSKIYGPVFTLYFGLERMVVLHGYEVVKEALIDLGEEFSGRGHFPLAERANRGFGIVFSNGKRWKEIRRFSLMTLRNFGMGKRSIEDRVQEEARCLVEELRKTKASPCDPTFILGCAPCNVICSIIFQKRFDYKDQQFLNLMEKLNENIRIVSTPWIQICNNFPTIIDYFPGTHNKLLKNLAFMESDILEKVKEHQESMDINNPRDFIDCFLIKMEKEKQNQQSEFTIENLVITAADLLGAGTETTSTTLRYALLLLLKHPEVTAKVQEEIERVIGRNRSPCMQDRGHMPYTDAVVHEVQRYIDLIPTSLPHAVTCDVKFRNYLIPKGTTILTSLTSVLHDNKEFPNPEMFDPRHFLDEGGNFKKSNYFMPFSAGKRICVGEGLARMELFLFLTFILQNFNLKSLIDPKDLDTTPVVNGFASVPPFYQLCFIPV

Cytochrome P450 2C9 = Cytochrome P450 2C9 (Homo sapiens, UniProt P11712)
Chain of Cytochrome P450 2C9 (P11712 whole entry, the tested form may be a part): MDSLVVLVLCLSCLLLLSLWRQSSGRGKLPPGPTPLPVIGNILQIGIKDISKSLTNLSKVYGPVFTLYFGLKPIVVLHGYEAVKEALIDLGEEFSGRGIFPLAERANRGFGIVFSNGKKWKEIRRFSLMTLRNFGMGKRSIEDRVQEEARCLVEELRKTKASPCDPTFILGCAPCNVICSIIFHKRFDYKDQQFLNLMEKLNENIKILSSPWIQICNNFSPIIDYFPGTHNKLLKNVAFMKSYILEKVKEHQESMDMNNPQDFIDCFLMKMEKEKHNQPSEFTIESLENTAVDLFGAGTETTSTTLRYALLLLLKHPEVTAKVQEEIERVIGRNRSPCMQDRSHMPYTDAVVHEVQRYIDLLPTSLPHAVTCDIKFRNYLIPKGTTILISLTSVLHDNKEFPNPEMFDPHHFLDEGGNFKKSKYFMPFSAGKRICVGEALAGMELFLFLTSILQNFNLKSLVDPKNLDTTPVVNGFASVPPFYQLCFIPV

[1] = target: T2, Oxysterols receptor LXR-beta (Homo sapiens, UniProt P55055); assay: LXR agonists, Gal4 luciferase reporter, dose response, counter-screen for ssDAF-12 agonist project, cell-based, luminescence, HEK293, S. stercoralis campaign (AID 720737); format: functional; settings: read-out: IC50 (the source's name)
T2 sequence (P55055 whole entry): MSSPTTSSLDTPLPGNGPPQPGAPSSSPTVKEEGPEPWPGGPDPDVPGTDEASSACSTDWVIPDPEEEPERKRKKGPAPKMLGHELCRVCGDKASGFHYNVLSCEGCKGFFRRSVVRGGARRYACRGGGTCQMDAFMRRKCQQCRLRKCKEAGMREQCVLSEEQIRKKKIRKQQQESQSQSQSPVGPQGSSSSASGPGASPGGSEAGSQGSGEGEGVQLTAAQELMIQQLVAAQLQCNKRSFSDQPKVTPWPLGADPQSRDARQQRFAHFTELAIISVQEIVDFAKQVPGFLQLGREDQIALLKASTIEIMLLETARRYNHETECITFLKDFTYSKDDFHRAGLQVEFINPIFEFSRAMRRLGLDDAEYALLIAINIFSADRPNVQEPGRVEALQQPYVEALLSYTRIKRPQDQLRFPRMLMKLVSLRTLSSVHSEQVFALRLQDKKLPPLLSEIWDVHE

[2] = Luminescence-based cell-based high throughput dose response assay to identify activators of the DAF-12 from the parasite S. stercoralis (ssDAF-12).; format: functional
[3] = A Cell Based Secondary Assay To Explore Cytotoxicity of Compounds that Sensitize Mycobacterium Tuberculosis to Beta-Lactam Antibiotics.; format: functional
[4] = IC50 of Artemis nuclease activity blockers – biochemical, fluorescence intensity, dose response (AID 720701); format: functional;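 note: Artemis endonuclease enzyme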
[5] = viability of PTEN-deleted HCT116 cells – cell-based, HCT116 PTEN knockout, dose response (AID 1047); format: functional;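 note: HCT116 colon tumor cells with PTEN knocked out; cells exposed to compound for 60 hours before readout; potency for loss of cell viability measured by luminescence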
[6] = viability of HCT116 lacking mutant beta-catenin – cell-based, human colon tumor, dose response (AID 1045); format: functional;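 note: HCT116 colon tumor cells with beta catenin knocked out; cells exposed to compound for 60 hours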
[7] = target: T3, COUP transcription factor 2 (Homo sapiens, UniProt P24468); assay: Luminescence-based cell-based high throughput dose response assay to identify inhibitors of COUP-TFII (NR2F2).; format: functional;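 note: HEK293 cells transiently cotransfected with COUP-TFII expression vector and reporter; luciferase reporter luminescence driven by COUP-TFII from the pX2-168 reporter plasmid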
T3 sequence (P24468 whole entry): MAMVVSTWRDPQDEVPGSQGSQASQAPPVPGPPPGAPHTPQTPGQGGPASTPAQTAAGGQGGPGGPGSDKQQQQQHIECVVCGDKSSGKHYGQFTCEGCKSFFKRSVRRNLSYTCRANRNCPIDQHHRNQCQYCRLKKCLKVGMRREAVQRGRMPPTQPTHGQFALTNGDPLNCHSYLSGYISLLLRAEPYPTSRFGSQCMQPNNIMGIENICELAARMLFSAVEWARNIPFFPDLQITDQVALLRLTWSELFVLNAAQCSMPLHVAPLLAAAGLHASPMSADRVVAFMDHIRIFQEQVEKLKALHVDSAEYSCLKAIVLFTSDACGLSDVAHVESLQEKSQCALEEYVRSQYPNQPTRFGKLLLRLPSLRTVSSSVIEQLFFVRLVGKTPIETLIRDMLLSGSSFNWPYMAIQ

Protein Wnt-3a = Protein Wnt-3a (Mus musculus, UniProt P27467); assay: antagonism of Wnt3a pathway luciferase reporter – Wnt-LIGHT cells, luminescence, selectivity assay for Gli-SUFU antagonist project, dose response (AID 651570); format: functional; settings: read-out: IC50_Mean;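 note: Wnt-LIGHT reporter cells stimulated with conditioned medium from Wnt3a-producing cells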
Chain of Protein Wnt-3a (P27467 whole entry): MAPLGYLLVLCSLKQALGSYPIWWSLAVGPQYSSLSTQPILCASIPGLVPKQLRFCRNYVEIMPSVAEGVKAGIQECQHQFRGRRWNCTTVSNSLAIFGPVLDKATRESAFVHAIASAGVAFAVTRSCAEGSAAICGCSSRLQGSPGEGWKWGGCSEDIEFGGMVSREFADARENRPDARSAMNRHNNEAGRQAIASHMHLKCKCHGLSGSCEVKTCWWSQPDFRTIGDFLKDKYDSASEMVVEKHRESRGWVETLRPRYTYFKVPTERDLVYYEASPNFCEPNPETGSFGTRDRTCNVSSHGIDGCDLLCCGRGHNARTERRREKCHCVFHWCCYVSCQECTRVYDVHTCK

[8] = loss of viability in HepG2 cells – cell-based, CellTiter-Glo, cherry-picked, cytotoxicity control for Shn3 inhibitor project, dose response (AID 624134); format: functional
[9] = non-specific 3'UTR reporter inhibition in Clone20-Shn3RL – cell-based, Renilla luciferase, cherry-picked, counter-screen for Shn3 inhibitor project, dose response (AID 624133); format: functional
[10] = reduction of Shn3 3'UTR-driven luciferase in osteoblasts – cell-based, Clone20 osteoblasts, firefly luciferase, cherry-picked, dose response (AID 624132); format: functional;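 note: firefly luciferase luminescence from reporter carrying the Shn3 3'UTR in osteoblasts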
[11] = target: Mitogen-activated protein kinase 10 (Homo sapiens, UniProt P53779); assay: Dose response biochemical screening assay for inhibitors of c-Jun N-Terminal Kinase 3 (JNK3). [Related pubchem assays: 746 ]
Chain of Mitogen-activated protein kinase 10 (P53779 whole entry): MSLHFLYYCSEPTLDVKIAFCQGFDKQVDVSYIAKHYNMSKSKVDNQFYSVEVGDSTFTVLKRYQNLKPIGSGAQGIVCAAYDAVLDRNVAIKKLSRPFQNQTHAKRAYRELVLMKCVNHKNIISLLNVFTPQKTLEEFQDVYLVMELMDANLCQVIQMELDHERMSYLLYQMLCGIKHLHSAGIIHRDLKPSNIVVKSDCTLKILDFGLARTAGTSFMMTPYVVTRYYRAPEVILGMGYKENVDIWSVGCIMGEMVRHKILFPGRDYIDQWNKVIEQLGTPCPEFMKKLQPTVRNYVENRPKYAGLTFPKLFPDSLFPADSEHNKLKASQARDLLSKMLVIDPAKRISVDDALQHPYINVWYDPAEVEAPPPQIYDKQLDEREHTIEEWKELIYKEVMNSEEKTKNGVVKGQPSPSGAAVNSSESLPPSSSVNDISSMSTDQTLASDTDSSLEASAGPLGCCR

cells [12] = format: functional, cell-based
[13] = target: T4, Trace amine-associated receptor 1 (Homo sapiens, UniProt Q96RJ0); assay: Fluorescence-based cell-based high throughput dose response assay to identify agonists of the human trace amine associated receptor 1 (TAAR1).; format: functional
T4 sequence (Q96RJ0 whole entry): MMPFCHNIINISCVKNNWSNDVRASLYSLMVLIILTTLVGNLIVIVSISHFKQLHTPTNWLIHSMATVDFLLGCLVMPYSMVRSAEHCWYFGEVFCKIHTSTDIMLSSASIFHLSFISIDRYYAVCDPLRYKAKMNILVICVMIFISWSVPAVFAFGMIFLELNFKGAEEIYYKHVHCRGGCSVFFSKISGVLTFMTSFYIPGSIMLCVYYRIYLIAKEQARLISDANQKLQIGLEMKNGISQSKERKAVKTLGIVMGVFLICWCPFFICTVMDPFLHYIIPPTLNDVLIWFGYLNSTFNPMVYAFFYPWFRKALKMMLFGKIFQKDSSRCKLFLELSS

cells [14] = format: functional, cell-based; remark: listed apart in the source
[15] = target: T4, Trace amine-associated receptor 1; assay: Counterscreen for agonists of the human trace amine associated receptor 1 (hTAAR1): Fluorescence-based cell-based high throughput dose response assay to identify hTAAR1 agonist that also desensitize TAAR1 receptor response.; format: functional
Albumin = Albumin (Bos taurus, UniProt P02769); assay: Counterscreen for inhibitors of T-cell receptor (TCR)-CD3 interaction: Fluorescence-based biochemical high throughput dose response assay to identify inhibitors of T-cell receptor (TCR)-CD3 interaction using a TAMRA-labeled BSA probe.; format: functional
Chain of Albumin (P02769 whole entry): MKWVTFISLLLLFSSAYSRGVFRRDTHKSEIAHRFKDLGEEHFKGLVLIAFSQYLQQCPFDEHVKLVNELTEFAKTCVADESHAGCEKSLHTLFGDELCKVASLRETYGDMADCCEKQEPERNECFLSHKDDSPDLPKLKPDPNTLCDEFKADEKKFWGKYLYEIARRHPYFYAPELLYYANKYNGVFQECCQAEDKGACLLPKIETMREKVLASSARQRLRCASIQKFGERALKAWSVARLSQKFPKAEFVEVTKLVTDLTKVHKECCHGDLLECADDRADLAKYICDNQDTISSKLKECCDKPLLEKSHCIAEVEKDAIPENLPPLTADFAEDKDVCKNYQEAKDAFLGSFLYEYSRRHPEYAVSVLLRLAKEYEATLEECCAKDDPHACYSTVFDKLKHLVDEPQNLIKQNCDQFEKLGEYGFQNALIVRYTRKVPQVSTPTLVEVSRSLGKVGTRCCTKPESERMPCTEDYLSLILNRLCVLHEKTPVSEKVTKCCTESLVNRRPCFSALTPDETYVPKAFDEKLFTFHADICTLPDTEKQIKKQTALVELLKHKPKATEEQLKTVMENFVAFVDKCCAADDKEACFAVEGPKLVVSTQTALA

[16] = reduced cellular PGC1a acetyl-lysine signal – cell-based, cherry-picked samples, dose response (AID 720514); format: functional;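 note: potency may reflect raised or lowered acetylation signal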

Chain of Cytochrome P450 3A4 (P08684 whole entry): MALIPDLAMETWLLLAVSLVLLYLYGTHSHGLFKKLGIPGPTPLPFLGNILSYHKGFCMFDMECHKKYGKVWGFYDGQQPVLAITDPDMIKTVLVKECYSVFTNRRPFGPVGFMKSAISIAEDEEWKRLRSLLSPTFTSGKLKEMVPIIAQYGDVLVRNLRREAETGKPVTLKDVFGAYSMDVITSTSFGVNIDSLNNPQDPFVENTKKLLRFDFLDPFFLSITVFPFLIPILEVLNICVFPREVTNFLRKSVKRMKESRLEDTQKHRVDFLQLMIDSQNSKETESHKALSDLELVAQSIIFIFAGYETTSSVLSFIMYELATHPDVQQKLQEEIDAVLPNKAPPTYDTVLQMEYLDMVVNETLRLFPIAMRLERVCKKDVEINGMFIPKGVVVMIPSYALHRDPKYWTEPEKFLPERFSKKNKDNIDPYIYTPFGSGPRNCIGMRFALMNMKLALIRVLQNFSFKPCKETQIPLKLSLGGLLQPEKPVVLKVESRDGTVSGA

CCOc1ccccc1Oc1c(C)oc2cc(OC(=O)c3ccco3)ccc2c1=O
AC50 (Cytochrome P450 3A4): 20 µM (inconclusive) | Ki (fMet-Leu-Phe receptor): 20.5 µM (inactive) | AC50 (Cytochrome P450 2C19): 3.16 µM (inconclusive) | AC50 (Cytochrome P450 2C9): inconclusive

CCNC1=NN=C(c2c[nH]c3ccccc23)CS1
EC50 [1]: > 67.6 µM (inactive) | IC50 [2]: > 67.6 µM (inactive)

Cc1ccc(-c2cc(-c3ccccc3)no2)c(O)c1
EC50 [1]: > 67.5 µM (inactive) | IC50 [2]: > 67.5 µM (inactive)

c1ccc(-c2ccc(C3=Nn4c(Cn5nnc6ccccc65)nnc4SC3)cc2)cc1
CC50 [3]: > 40 µM (active) | IC50 [4]: > 20 µM (inactive)

CCCCOC(=O)c1[nH]c2c(c1C)C(=O)CC(c1cc(OC)c(OC)c(OC)c1)C2 (stereo not given)
EC50 [5]: 79.5 µM (active) | EC50 [6]: 58.8 µM (active) | IC50 [7]: 7.91 µM (active) | IC50 (Protein Wnt-3a): 8.48 µM (active) | AC50 [8]: 62 µM (active) | AC50 [9]: 3.74 µM (active) | AC50 [10]: 1.35 µM (active)

CCC(CCC(=O)Nc1cccc(C(=O)O)c1)C(=O)O (stereo not given)
Ki (fMet-Leu-Phe receptor): > 66.7 µM (inactive)

COCCN1Cc2cccc(C(=O)NCc3ccc4c(c3)OCO4)c2C1=O
Ki (fMet-Leu-Phe receptor): > 66.7 µM (inactive) | IC50 [11]: > 31 µM (not active)

C#CCOC(=O)CCC(=O)NCCc1ccccc1
EC50 (cells [12]): > 29.9 µM (inactive) | EC50 [13]: 3.07 µM (active) | IC50 (cells [14]): > 29.9 µM (inactive) | IC50 [15]: 1.66 µM (active)

Cc1nnc(SCC(=O)NCCC2=CCCCC2)nc1O
EC50 (cells [12]): > 29.9 µM (inactive) | EC50 [13]: 1.25 µM (active) | IC50 (cells [14]): > 29.9 µM (inactive) | IC50 [15]: 7.22 µM (active)

Cc1ccc(S(=O)(=O)N2CCC(C(=O)NNC(=O)c3ccccc3O)CC2)cc1C
IC50 (Albumin): > 94.1 µM (inactive)

CC(NC1=NS(=O)(=O)c2ccccc21)C(=O)NCCCc1ccccc1 (stereo not given)
AC50 [16]: 11.4 µM (active)
